Reference: patent publication US8344009B2, “Substituted phenoxy thiazolidinediones as estrogen related receptor-á modulators” (priority 2007, dated 2013)
Marks after values point to notes of the source that are not given here.

Tests used:
AKR/J mice = test: AKR/J mouse obesity model; format: in vivo; details: for 3-hydroxy-butyrate / % body fat / FFA (Free Fatty Acids): NEFA (Non Esterified Fatty Acids) / Glucose / Lean Mass / Triglyceride / Insulin / Total body fat: five days; for Insulin: plasma; for Total body fat: high fat diet, Q-NMR
Description: AKR/J mice are a polygenic model of diet-induced obesity characterized by hypertriglyceridemia and hyperinsulinemia. AKR/J mice were received at seven weeks of age and allowed to acclimate for one week and then placed on high fat diet (45% of the calories from fat) for five weeks. Animals were treated for five days with 3 mpk (mg/kg) and 30 mpk Compound 1 (Example 1) given orally twice a day. Food intake was measured at day four. On day five, prior to necropsies, body weight was recorded and body composition was measured by Q-NMR (Quantitative Nuclear Magnetic Resonance). Animals were anesthetized with carbon dioxide and blood was collected by cardiac puncture. Plasma was obtained by centrifugation and used to determine circulating insulin levels and clinical chemistries, including liver functions tests, using commercially available kits as per manufacturers instructions. Several tissues were harvested, frozen in liquid nitrogen and stored at −80° C. for further use.

ZDF fa/fa male rats = test: ZDF diabetic rat model at 0.08, 0.4, 2 and 10 mpk; format: in vivo; details: for % Hb1Ac / FFA (NEFA) / Glucose / Triglycerides / cholesterol / ketone: 28 day ZDF efficacy study; for circulating glucose levels upon intraperitoneal delivery of insulin (ITT): FIG. 10
From the text: Briefly, sixty-five ZDF fa/fa male rats were received at four weeks of age and allowed to acclimate for one week. At five week of age the animals were single housed in cages in a temperature-controlled room with 12-hour light/dark cycle. They were allowed ad libitum access to water and food and throughout the study were maintained on a Purina 5008 diet. […] Animals were given Compound 1 orally once a day for 28 days in the morning at 0.08, 0.4, 2.0 and 10 mpk. The vehicle used for Compound 1 in this study consisted of 15% VE-TEPG, 30% PEG400 and 55% water. Food intake, body weight, glucose, insulin, triglyceride and free fatty acid levels were monitored throughout the study using blood collected from the tail vein. At day 16 of the study an insulin tolerance test (ITT) was done to evaluate peripheral insulin sensitivity. On day 22 an OGTT was done to assess glucose disposal rates. On the day of the necropsy the rats were bled through the orbital sinus under CO2:O2 anesthesia. Animals were sacrificed and several tissues were collected, frozen in liquid nitrogen and stored at −80° C. Serum plasma samples were prepared by centrifugation in EDTA containing tubes, transferred into 96 well plates and stored at −80° C.

COc1cc(/C=C2\SC(=O)NC2=O)ccc1Oc1ccc(C#N)cc1C(F)(F)F [Compound 1, 4-[4-(2,4-Dioxo-thiazolidin-5-ylidenemethyl)-2-methoxy-phenoxy]-3-trifluoromethyl-benzonitrile]
3-hydroxy-butyrate (AKR/J mice; 3 mpk orally twice a day): 8.3 ± 0.9 ×10−5 | % body fat (AKR/J mice; 3 mpk orally twice a day): 12.7 ± 0.8% | FFA (Free Fatty Acids): NEFA (Non Esterified Fatty Acids) (AKR/J mice; 3 mpk orally twice a day): 0.59 ± 0.07 mM | Glucose (AKR/J mice; 3 mpk orally twice a day): 165.0 ± 5.0 mg/dL | Lean Mass (AKR/J mice; 3 mpk orally twice a day): 20.2 ± 0.3 g | Triglyceride (AKR/J mice; 3 mpk orally twice a day): 160.0 ± 18.9 mg/dL | Insulin (AKR/J mice; 3 mpk orally twice a day): 9.6 ± 1.5 ng/mL | 3-hydroxy-butyrate (AKR/J mice; 30 mpk orally twice a day): 12.6 ± 1.8 ×10−5 | % body fat (AKR/J mice; 30 mpk orally twice a day): 9.3 ± 0.6 % | FFA (Free Fatty Acids): NEFA (Non Esterified Fatty Acids) (AKR/J mice; 30 mpk orally twice a day): 0.41 ± 0.05 mM | Glucose (AKR/J mice; 30 mpk orally twice a day): 185.0 ± 10.01 mg/dL | Lean Mass (AKR/J mice; 30 mpk orally twice a day): 20.0 ± 0.2 g | Triglyceride (AKR/J mice; 30 mpk orally twice a day): 80.0 ± 9.8 mg/dL | Insulin (AKR/J mice; 30 mpk orally twice a day): 2.8 ± 0.8 ng/mL | Total body fat (AKR/J mice; AKR/J mice, 3 mpk orally twice a day): 3.87 ± 0.29 g | Total body fat (AKR/J mice; AKR/J mice, 30 mpk orally twice a day): 2.7 ± 0.2 g | body weight (AKR/J mice; FIG. 1, AKR/J mice, 3 and 30 mpk twice a day, day five): reduces body weight | food intake (AKR/J mice; FIG. 1, AKR/J mice, 3 and 30 mpk twice a day, day four): reduces food intake | Body weight change (0-28 day) (ZDF fa/fa male rats; 0.08 mpk orally once a day): 71.7 | Total food intake (0-28 days) (ZDF fa/fa male rats; 0.08 mpk orally once a day): 804.5 | % Hb1Ac (ZDF fa/fa male rats; 0.08 mpk): 10.1% | FFA (NEFA) (ZDF fa/fa male rats; 0.08 mpk): 1.2 mM | Glucose (ZDF fa/fa male rats; 0.08 mpk): 444 mg/dL | Triglycerides (ZDF fa/fa male rats; 0.08 mpk): 770 mg/dL | cholesterol (ZDF fa/fa male rats; 0.08 mpk): 118 mg/dL | ketone (ZDF fa/fa male rats; 0.08 mpk): 162 µmol/L | Body weight change (0-28 day) (ZDF fa/fa male rats; 0.4 mpk orally once a day): 61.9 | Total food intake (0-28 days) (ZDF fa/fa male rats; 0.4 mpk orally once a day): 792.3 | % Hb1Ac (ZDF fa/fa male rats; 0.4 mpk): 10.0% | FFA (NEFA) (ZDF fa/fa male rats; 0.4 mpk): 0.61 mM | Glucose (ZDF fa/fa male rats; 0.4 mpk): 419 mg/dL | Triglycerides (ZDF fa/fa male rats; 0.4 mpk): 672 mg/dL | cholesterol (ZDF fa/fa male rats; 0.4 mpk): 119 mg/dL | ketone (ZDF fa/fa male rats; 0.4 mpk): 113 µmol/L | Body weight change (0-28 day) (ZDF fa/fa male rats; 2.0 mpk orally once a day): 80.4 | Total food intake (0-28 days) (ZDF fa/fa male rats; 2.0 mpk orally once a day): 792.6 | % Hb1Ac (ZDF fa/fa male rats; 2.0 mpk): 8.8% | FFA (NEFA) (ZDF fa/fa male rats; 2.0 mpk): 0.87 mM | Glucose (ZDF fa/fa male rats; 2.0 mpk): 376 mg/dL | Triglycerides (ZDF fa/fa male rats; 2.0 mpk): 605 mg/dL | cholesterol (ZDF fa/fa male rats; 2.0 mpk): 117 mg/dL | ketone (ZDF fa/fa male rats; 2.0 mpk): 95* umol/L | Body weight change (0-28 day) (ZDF fa/fa male rats; 10 mpk orally once a day): 95.4 | Total food intake (0-28 days) (ZDF fa/fa male rats; 10 mpk orally once a day): 771.4 | % Hb1Ac (ZDF fa/fa male rats; 10.0 mpk): 7.7% | FFA (NEFA) (ZDF fa/fa male rats; 10.0 mpk): 0.75 mM | Glucose (ZDF fa/fa male rats; 10.0 mpk): 274* mg/dL | Triglycerides (ZDF fa/fa male rats; 10.0 mpk): 506 mg/dL | cholesterol (ZDF fa/fa male rats; 10.0 mpk): 121 mg/dL | ketone (ZDF fa/fa male rats; 10.0 mpk): 85* umol/L | circulating glucose levels upon intraperitoneal delivery of insulin (ITT) (ZDF fa/fa male rats): reduction in circulating glucose levels | circulating glucose levels upon intraperitoneal delivery of insulin (ITT) (ZDF fa/fa male rats; listed as compound 1): normalizing glucose levels at the 30 minute time point | AUC of glucose during the ITT (ZDF fa/fa male rats; FIG. 10 right panel, 0-60 and 0-120 minute time point): reduction of AUC of glucose | fasting glucose levels (ZDF fa/fa male rats; FIG. 11, after a 4 and 16 hour fast): reduction in fasting glucose levels | plasma glucose following an oral glucose tolerance test (ZDF fa/fa male rats; FIG. 12, OGTT day 22): reducing fasting plasma glucose | fed plasma glucose levels (ZDF fa/fa male rats; FIG. 13, first three weeks of the study): lowering of fed plasma glucose levels
